Values quoted from earlier work in US20210228489A1, “COMPOSITIONS FOR TREATING CYSTIC FIBROSIS” (Vertex Pharmaceuticals Incorporated, priority 2017, published 2021).

Tested on: CFTR
Conditions: CFTR modulator; disclosed in PCT Publication No. WO 2016/057572

For `CC(C)COc1cc(F)cc(-c2ccc(C(=O)NS(=O)(=O)c3cccc(N)n3)c(N3C[C@@H](C)CC3(C)C)n2)c1` [Compound I, N-[(6-amino-2-pyridyl)sulfonyl]-6-(3-fluoro-5-isobutoxy-phenyl)-2-[(4S)-2,2,4-trimethylpyrrolidin-1-yl]pyridine-3-carboxamide], the EC30 is given as under 3000 nM.
